The record followed here is the NIST ThermoML archive (doi:10.1021/acs.jced.6b00819).

A short description of this series: wn = mass fraction of the nth substance listed. As to conditions: 100 kPa, Liquid, Pycnometric method.

Numbers after ± are expanded uncertainties.

For orientation: mass density means the mass of a sample divided by its volume. With `N.N.O=S(=O)(O)O` [ammonium sulfate] + O, the mass density is 1238 ± 2 kg/m3 (313.15 K, w1 = 0.446) and 1242 ± 2 kg/m3 (353.15 K, w1 = 0.481).
